This is an account of results in US20230102840A1, “COMPOSITIONS AND METHODS RELATING TO COMBINATORIAL HYALURONIC ACID CONJUGATES” (PRESIDENT AND FELLOWS OF HARVARD COLLEGE, priority 2020, published 2023).

Molecules are shown by their SMILES. ≈ marks a conversion by molar mass, not a printed value.

Data set [1] has as its system BMDM. The data set is described as follows: Viability of BMDM after 48 h treatment. It is filed as cell-based. The protocol: Immune cells system as macrophages and dendritic cells are responsible for the initiation of immune responses, and are the prime target for immunostimulatory drugs. To verify that the HA-RES conjugate is not toxic for immune cells, BMDM were treated with increasing concentrations of RES or HA-RES for 48 h.
The inventors also tested the effect of BEX and its HA conjugate on the viability of BMDM by exposing them to increasing concentration ranging from (0.39-50 μM).

Data set [2] concerns BMDM. The experiment in a line: BMDM polarization (M1/M2 marker expression). It is filed as cell-based. Particulars: 48 hr, vs untreated cells. How it is done: To further elucidate the effect of HA-RES and HA-BEX and their combination on macrophage phenotyping the inventors studied their effect on macrophage polarization. BMDMs were treated with different concentrations of RES and HA-RES for 48 hr. (FIG. 6A)
The expression of several markers associated with M1 and M2 phenotypes was evaluated.

In data set [3] the test system is B16F10-Luc melanoma cells. The data set is described as follows: Cytotoxicity study on B16F10-Luc cells. Type of data set: cell-based. The conditions noted are these: 48 h. The protocol: (§1) 5×10^3 B16F10-Luc cells were seeded in 96 well plates and allowed to adhere overnight. For establishment for a coculture, B16F10 cells were cocultured with BMDM at a ratio of 1:10 (5×10^3 B16F10: 5×10^4 BMDM per well). The next day, the media was aspirated and replaced with increasing concentration of the free drugs, combination and the HA-conjugates with equivalent free drug concentrations and cells were incubated with the drug solutions for 48 h after which the treatment was aspirated and replaced with 0.5% Xenolight-D-luciferin potassium salt solution in complete DMEM. Finally, cellular viability was assessed by reading the luminescence of the solution from each well after 5 min using BioTek plate reader. Untreated cells were used as controls.

The test system of data set [4] is B16F10-Luc melanoma cells cocultured with BMDM. The experiment in a line: Cytotoxicity study, B16F10-Luc cocultured with BMDM. It is filed as cell-based. The conditions noted are these: coculture with BMDM; compared with B16F10 alone. The protocol:
as §1

The subject of the next data set is A431 cells. The data set is described as follows: In vitro cytotoxicity on A431 cells. Particulars: Homo sapiens, A-431; 48 h, alamar blue. Type of data set: cell-based.
The subject of data set [5] is primary human fibroblasts. The data set is described as follows: Cell viability study in primary human fibroblasts. Particulars: increasing concentrations, 48 h, relative to the untreated control. It is filed as cell-based. The protocol: Primary human fibroblast (seeded at density 5,000 cells/well) and primary human keratinocytes (at density 2,000 cells/well) were used for the cytotoxicity studies in vitro. The culture media used for the keratinocytes was keratinocyte serum free medium supplemented with L-glutamine, EGF and BPE while that for fibroblasts was Dulbecco's Modified Eagle's Medium-high glucose supplemented with 2% penicillin/streptomycin and 5% FBS. Cells were incubated in a humidified incubator under 5% CO2 at 37° C. After 24 h, 50 μL of the media were withdrawn and replaced by 50 ul of increasing concentrations of each treatment reaching a final volume of 100 μL in the well. Cells were incubated for 48 h under standard cell culture conditions after which cell viability was assessed by AB assay as previously described.

The conditions of data set [6]: background statement; cited from earlier work.

Protocol for A431 cells: A431 cells were cultured in DMEM media supplemented with 10% FBS, 1% Pen Strep. The cells were passaged 3-4 times prior to setting up the assay. […] Cells were cultured in a humidified incubator maintained at 37° C. and 5% C02 (Thermo scientific, USA). A431 Cells (5×10^3 in 100 ul in complete DMEM) were seeded in 96 well plates and allowed to adhere overnight. The next day, cell culture media was aspirated and replaced with the different treatments. The cells were incubated with the drug solutions for 48 hr after which the treatment was aspirated and replaced with 10% alamar blue (AB) solution in complete DMEM and incubated for an additional 3.5 h in the dark at 37° C. […] Finally, cellular viability was assessed by reading the florescence of the solution from each well at λex=560 nm and λem=590 nm. […] Baseline fluorescence levels from wells without cells were subtracted from each data (Dose response curves were fit to each drug and/or polymer drug conjugate with the median effect model^[28]. For combination treatment, synergy was quantified with the combination index^[29]

`C=C(c1ccc(C(=O)O)cc1)c1cc2c(cc1C)C(C)(C)CCC2(C)C` [BEX, Bexarotene]: the “viability of BMDM” value was “significant decrease in the cells viability” with BMDM [1] (50 uM) and “didn't alter the viability” with BMDM [1] (all concentrations tested up to 25 uM (range 0.39-50 μM)). In the data set on BMDM [2], the “expression of CD206 (M2 marker)” value is recorded as “significant reduction”. Also, the IC50 in data set [3] (Mus musculus, B16-F10, luminescence viability) worked out at 25 µM; in the data set with A431 cells, 60.3 µM. In data set [4], the “IC50 in the presence of MAC” value is “same IC50”. In addition, the “viability of primary human dermal fibroblasts” value in data set [5] was “did not significantly affect the cell viability”. For the same compound, the aqueous solubility in data set [6] is around 10 µM (≈ 3.48 µg/mL).

As to `CCOCc1nc2c(N)nc3ccccc3c2n1CC(C)(C)O` [RES, Resiquimod], the “viability of BMDM” value in the data set on BMDM [1] (increasing concentrations, 48 h, all concentrations tested) is “marked increase in cell viability”. Also, in data set [3] (B16F10-Luc alone), the “cytotoxic effect on melanoma cells” value is reported as “negligible cytotoxic effect”.

On to `O=C(CCCCCCC(=O)Nc1ccccc1)NO` [VOR, Vorinostat], for which the “viability of primary human dermal fibroblasts” value in data set [5] is reported as “did not significantly affect the cell viability”.
